Where two headings read alike, the source gives them in different places.
Test system: LPS-induced IL-6 release level from THP-1 cells
Test: Test of IL-6 release from THP-1 cells (LPS-induced, IL-6 in supernatant detected by CBA)
Assay type: cell-based
Details: Homo sapiens, read-out: Inhibition rate @ 10 uM
In short: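 THP-1 cells were treated with compound at final 30, 10, 3 and 1 uM, with dexamethasone 100 nM as reference, then stimulated with LPS. The LPS working solution was 800 ng/ml. After 24 h at 37 °C, IL-6 in the supernatant was measured by CBA.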

[1] = inflammatory factor IL-6 detected by CBA, compound 10 uM, LPS-stimulated THP-1 cells, supernatant after 24 hours

## C=C1CCC2[C@]3(C)CO[C@@H](C4CCCC4)O[C@@H]3CC[C@@]2(C)[C@@H]1CCOc1cscc1C(=O)O (stereo partly drawn) [Compound 453, 4-(2-((3R,4aR,6aS,7R,10bR)-3-cyclopentyl-6a,10b-dimethyl-8-dihydromethylenedecahydro-1H-naphtho[2,1-d][1,3]dioxin-7-yl)ethoxy)thiophene-3-carboxylic acid]
[1]
  inhibition at 10 µM: > 60%

## C=C1CCC2[C@]3(C)CO[C@@H](C4CCCC4)O[C@@H]3CC[C@@]2(C)[C@@H]1CCOc1cnc(C(=O)O)nc1 (stereo partly drawn) [Compound 454, 5-(2-((3R,4aR,6aS,7R,10bR)-3-cyclopentyl-6a,10b-dimethyl-8-dihydromethylenedecahydro-1H-naphtho[2,1-d][1,3]dioxin-7-yl)ethoxy)pyrimidine-2-carboxylic acid]
[1]
  inhibition at 10 µM: 30 to 60%

## C=C1CCC2[C@]3(C)CO[C@@H](C4CCCC4)O[C@@H]3CC[C@@]2(C)[C@@H]1CCN1CCOC[C@@H]1C(=O)O (stereo partly drawn) [Compound 456]
[1]
  inhibition at 10 µM: > 60%

## C=C1CCC2[C@]3(C)CO[C@@H](C4CCCC4)O[C@@H]3CC[C@@]2(C)[C@@H]1CCn1cc(C(=O)O)ccc1=O (stereo partly drawn) [Compound 457, 1-(2-((3R,4aR,6aS,7R,10bR)-3-cyclopentyl-6a,10b-dimethyl-8-dihydromethylene-1H-naphtho[2,1-d][1,3]dioxin-7-yl)ethyl)-6-oxo-1,6-dihydropyridine-3-carboxylic acid]
THP-1, 24 h
  inhibition at 10 µM: > 60%

## C=C1CCC2[C@]3(C)CO[C@@H](C4CCCC4)O[C@@H]3CC[C@@]2(C)[C@@H]1CCn1cc(C(=O)O)cn1 (stereo partly drawn) [Compound 458, 1-(2-((3R,4aR,6aS,7R,10bR)-3-cyclopentyl-6a,10b-dimethyl-8-dihydromethylene-1H-naphtho[2,1-d][1,3]dioxin-7-yl)ethyl)-1H-pyrazole-4-carboxylic acid]
[1]
  inhibition at 10 µM: 30 to 60%

## C=C1CCC2[C@]3(C)CO[C@@H](C4CCCC4)O[C@@H]3CC[C@@]2(C)[C@@H]1CCOC1CCN(C(C)(C)C(=O)O)CC1 (stereo partly drawn) [Compound 463]
[1]
  inhibition at 10 µM: > 60%

## C=C1CCC2[C@]3(C)CO[C@@H](C4CCCC4)O[C@@H]3CC[C@@]2(C)[C@@H]1CCOC1CCN(CCO)CC1 (stereo partly drawn) [Compound 482, 2-(4-(2-((3R,4aR,6aS,7R,10bR)-3-cyclopentyl-6a,10b-dimethyl-8-dihydromethylenedecahydro-1H-naphtho[2,1-d][1,3]dioxin-7-yl)ethoxy)piperidine-1-yl)ethanol]
[1]
  inhibition at 10 µM: > 60%

## C=C1CCC2[C@]3(C)CO[C@@H](C4CCCC4)O[C@@H]3CC[C@@]2(C)[C@@H]1CCOC1CCN(CC(F)(F)F)CC1 (stereo partly drawn) [Compound 483, 4-(2-((3R,4aR,6aS,7R,10bR)-3-cyclopentyl-6a,10b-dimethyl-8-dihydromethylenedecahydro-1H-naphtho[2,1-d][1,3]dioxin-7-yl)ethoxy)-1-(2,2,2,-trifluoroethyl)piperidine]
[1]
  inhibition at 10 µM: 30 to 60%

## C=C1CCC2[C@]3(C)CO[C@@H](C4CCCC4)O[C@@H]3CC[C@@]2(C)[C@@H]1CCOC1CCN(S(=O)(=O)C2CC2)CC1 (stereo partly drawn) [Compound 484, 4-(2-((3R,4aR,6aS,7R,10bR)-3-cyclopentyl-6a,10b-dimethyl-8-dihydromethylene-decahydro-1H-naphtho[2,1-d][1,3]dioxin-7-yl)ethoxyl)-1-(cyclopropylsulfonyl)piperidine]
[1]
  inhibition at 10 µM: > 60%

Reference: US10717720B2, “Modified compound of andrographolide” (Heilongjiang Zhenbaodao Pharmaceutical Co., Ltd., priority 2015, dated 2020)
